Data taken from PubChem BioAssay AID2060884 (Molecular Pharmacology Branch, DTP, NCI, 2025).
Values belong to the molecule of their own block, whether it stands above or below them.

Test system: NCI-H929 complex spheroids, viability % test/control
Assay: Anticancer human tumor NCI-H929 cell line growth inhibition [RAS];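 further: compound exposure lasted seven days before viability was read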;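 on viability, T/C: 100% = DMSO vehicle control viability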
Conditions: for viability, T/C: stronger effect = lower value
Method in brief: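 Agents were tested in combination matrices in half-log decrements from a top concentration at or near clinical Cmax (10 microM if undetermined). Targets were multi-cell spheroids of tumour lines plus HUVEC and MSC stromal cells.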

[1] = curve of first compound, second compound 0.000949 µM
[2] = curve of first compound, second compound 0.003 µM
[3] = curve of first compound, second compound 0.00949 µM
[4] = curve of first compound, second compound 0.03 µM
[5] = curve of first compound, second compound 0.0949 µM
[6] = curve of first compound, second compound 0.3 µM
[7] = second compound 0.000949 µM, first compound 0.00316 µM
[8] = second compound 0.000949 µM, first compound 0.01 µM
[9] = second compound 0.000949 µM, first compound 0.0316 µM
[10] = second compound 0.000949 µM, first compound 0.1 µM
[11] = second compound 0.000949 µM, first compound 0.316 µM
[12] = second compound 0.000949 µM, first compound 1 µM
[13] = second compound 0.003 µM, first compound 0.00316 µM
[14] = second compound 0.003 µM, first compound 0.01 µM
[15] = second compound 0.003 µM, first compound 0.0316 µM
[16] = second compound 0.003 µM, first compound 0.1 µM
[17] = second compound 0.003 µM, first compound 0.316 µM
[18] = second compound 0.003 µM, first compound 1 µM
[19] = second compound 0.00949 µM, first compound 0.00316 µM
[20] = second compound 0.00949 µM, first compound 0.01 µM
[21] = second compound 0.00949 µM, first compound 0.0316 µM
[22] = second compound 0.00949 µM, first compound 0.1 µM
[23] = second compound 0.00949 µM, first compound 0.316 µM
[24] = second compound 0.00949 µM, first compound 1 µM
[25] = second compound 0.03 µM, first compound 0.00316 µM
[26] = second compound 0.03 µM, first compound 0.01 µM
[27] = second compound 0.03 µM, first compound 0.0316 µM
[28] = second compound 0.03 µM, first compound 0.1 µM
[29] = second compound 0.03 µM, first compound 0.316 µM
[30] = second compound 0.03 µM, first compound 1 µM
[31] = second compound 0.0949 µM, first compound 0.00316 µM
[32] = second compound 0.0949 µM, first compound 0.01 µM
[33] = second compound 0.0949 µM, first compound 0.0316 µM
[34] = second compound 0.0949 µM, first compound 0.1 µM
[35] = second compound 0.0949 µM, first compound 0.316 µM
[36] = second compound 0.0949 µM, first compound 1 µM
[37] = second compound 0.3 µM, first compound 0.00316 µM
[38] = second compound 0.3 µM, first compound 0.01 µM
[39] = second compound 0.3 µM, first compound 0.0316 µM
[40] = second compound 0.3 µM, first compound 0.1 µM
[41] = second compound 0.3 µM, first compound 0.316 µM
[42] = second compound 0.3 µM, first compound 1 µM

IC50 [1]: 6.16 nM
IC50 [2]: 6.22 nM
IC50 [3]: 5.72 nM
IC50 [4]: 5.97 nM
IC50 [5]: 5.49 nM
IC50 [6]: 5.79 nM
Structure (SMILES): Nc1ccn(C2OC(CO)C(O)C2(F)F)c(=O)n1 (stereo not drawn) + CCn1c(-c2cccnc2C(C)OC)c2c3cc(ccc31)N1CCOC(CC(NC(=O)C(C(C)C)N(C)C(=O)C3(F)CCN(C(=O)C#CC(C)(C)N(C)C)CC3)C(=O)N3CCCC(N3)C(=O)OCC(C)(C)C2)C1
viability, T/C [7]: 105%
viability, T/C [8]: 10.1%
viability, T/C [9]: 0.99%
viability, T/C [10]: 0.68%
viability, T/C [11]: 0.75%
viability, T/C [12]: 0.74%
viability, T/C [13]: 103%
viability, T/C [14]: 12.8%
viability, T/C [15]: 0.86%
viability, T/C [16]: 0.83%
viability, T/C [17]: 0.91%
viability, T/C [18]: 0.96%
viability, T/C [19]: 96.3%
viability, T/C [20]: 6.3%
viability, T/C [21]: 1.25%
viability, T/C [22]: 0.77%
viability, T/C [23]: 0.75%
viability, T/C [24]: 0.72%
viability, T/C [25]: 99.8%
viability, T/C [26]: 9.61%
viability, T/C [27]: 1.21%
viability, T/C [28]: 0.91%
viability, T/C [29]: 0.88%
viability, T/C [30]: 0.89%
viability, T/C [31]: 92.5%
viability, T/C [32]: 3.76%
viability, T/C [33]: 1.08%
viability, T/C [34]: 0.91%
viability, T/C [35]: 0.76%
viability, T/C [36]: 0.75%
viability, T/C [37]: 103%
viability, T/C [38]: 2.46%
viability, T/C [39]: 1.01%
viability, T/C [40]: 0.96%
viability, T/C [41]: 0.99%
viability, T/C [42]: 0.8%

IC50 (compound alone, run of 09/09/2024): > 1000 nM
IC50 (curve of compound): > 1000 nM
Structure (SMILES): C=CC(=O)N1CCN(c2nc(OCC3CCCN3C)nc3c(F)c(-c4nc(N)cc(C)c4C(F)(F)F)c(Cl)cc23)C(C)C1 (stereo not drawn)
viability, T/C (compound 0.00316 µM): 102% [middle of 12 runs]
viability, T/C (compound 0.01 µM, compound 0.0316 µM): 103%
viability, T/C (compound 0.01 µM, compound 0.1 µM): 105%
viability, T/C (compound 0.01 µM, compound 0.316 µM): 101%
viability, T/C (compound 0.01 µM, compound 1 µM): 106%
viability, T/C (compound 0.01 µM): 101% [middle of 13 runs]
viability, T/C (compound 0.0316 µM, compound 0.00316 µM): 94.3%
viability, T/C (compound 0.0316 µM, compound 0.01 µM): 101%
viability, T/C (compound 0.0316 µM, compound 0.1 µM): 101%
viability, T/C (compound 0.0316 µM, compound 0.316 µM): 108%
viability, T/C (compound 0.0316 µM, compound 1 µM): 109%
viability, T/C (compound 0.0316 µM): 103% [middle of 13 runs]
viability, T/C (compound 0.1 µM, compound 0.00316 µM): 98.2%
viability, T/C (compound 0.1 µM, compound 0.01 µM): 104%
viability, T/C (compound 0.1 µM, compound 0.0316 µM): 99.5%
viability, T/C (compound 0.1 µM, compound 0.316 µM): 109%
viability, T/C (compound 0.1 µM, compound 1 µM): 111%
viability, T/C (compound 0.1 µM): 100% [middle of 12 runs]
viability, T/C (compound 0.316 µM, compound 0.00316 µM): 102%
viability, T/C (compound 0.316 µM, compound 0.01 µM): 105%
viability, T/C (compound 0.316 µM, compound 0.0316 µM): 106%
viability, T/C (compound 0.316 µM, compound 0.1 µM): 102%
viability, T/C (compound 0.316 µM, compound 1 µM): 113%
viability, T/C (compound 0.316 µM): 100% [middle of 13 runs]
viability, T/C (compound 1 µM, compound 0.00316 µM): 107%
viability, T/C (compound 1 µM, compound 0.01 µM): 104%
viability, T/C (compound 1 µM, compound 0.0316 µM): 105%
viability, T/C (compound 1 µM, compound 0.1 µM): 109%
viability, T/C (compound 1 µM, compound 0.316 µM): 110%
viability, T/C (compound 1 µM): 104% [middle of 13 runs]

IC50 [1]: 789 nM
IC50 [2]: 725 nM
IC50 [3]: 642 nM
IC50 [4]: 134 nM
IC50 [5]: < 3.16 nM
IC50 [6]: < 3.16 nM
Structure (SMILES): CCN1CCN(Cc2ccc(Nc3ncc(F)c(-c4cc(F)c5nc(C)n(C(C)C)c5c4)n3)nc2)CC1 + CCn1c(-c2cc(N3CCN(C)CC3)cnc2C(C)OC)c2c3cc(ccc31)-c1csc(n1)CC(NC(=O)C1CC1C)C(=O)N1CCCC(N1)C(=O)OCC(C)(C)C2
viability, T/C [7]: 104%
viability, T/C [8]: 98.4%
viability, T/C [9]: 110%
viability, T/C [10]: 107%
viability, T/C [11]: 114%
viability, T/C [12]: 35.1%
viability, T/C [13]: 98.3%
viability, T/C [14]: 105%
viability, T/C [15]: 108%
viability, T/C [16]: 113%
viability, T/C [17]: 114%
viability, T/C [18]: 27.8%
viability, T/C [19]: 109%
viability, T/C [20]: 116%
viability, T/C [21]: 120%
viability, T/C [22]: 125%
viability, T/C [23]: 122%
viability, T/C [24]: 7.19%
viability, T/C [25]: 81.7%
viability, T/C [26]: 80.5%
viability, T/C [27]: 76.6%
viability, T/C [28]: 55.4%
viability, T/C [29]: 29.2%
viability, T/C [30]: 1.2%
viability, T/C [31]: 9.23%
viability, T/C [32]: 8.26%
viability, T/C [33]: 6.56%
viability, T/C [34]: 4.66%
viability, T/C [35]: 2.4%
viability, T/C [36]: 0.89%
viability, T/C [37]: 4.35%
viability, T/C [38]: 4.24%
viability, T/C [39]: 2.73%
viability, T/C [40]: 2.03%
viability, T/C [41]: 1.42%
viability, T/C [42]: 0.89%

IC50 [1]: 5990 nM
IC50 [2]: 5260 nM
IC50 [3]: 1470 nM
IC50 [4]: < 31.6 nM
IC50 [5]: < 31.6 nM
IC50 [6]: < 31.6 nM
Structure (SMILES): CC(Nc1ccc2c(c1)OCCn1cc(N3C(=O)OCC3C(F)F)nc1-2)C(N)=O (stereo not drawn) + CCn1c(-c2cc(N3CCN(C)CC3)cnc2C(C)OC)c2c3cc(ccc31)-c1csc(n1)CC(NC(=O)C1CC1C)C(=O)N1CCCC(N1)C(=O)OCC(C)(C)C2
viability, T/C [9]: 100%
viability, T/C [10]: 97.5%
viability, T/C [11]: 109%
viability, T/C [12]: 97.9%
viability, T/C (second compound 0.000949 µM, first compound 3.16 µM): 86.2%
viability, T/C (second compound 0.000949 µM, first compound 10 µM): 20.9%
viability, T/C [15]: 94.3%
viability, T/C [16]: 103%
viability, T/C [17]: 107%
viability, T/C [18]: 102%
viability, T/C (second compound 0.003 µM, first compound 3.16 µM): 78.5%
viability, T/C (second compound 0.003 µM, first compound 10 µM): 14.2%
viability, T/C [21]: 110%
viability, T/C [22]: 114%
viability, T/C [23]: 102%
viability, T/C [24]: 61.2%
viability, T/C (second compound 0.00949 µM, first compound 3.16 µM): 24.8%
viability, T/C (second compound 0.00949 µM, first compound 10 µM): 2.76%
viability, T/C [27]: 32.1%
viability, T/C [28]: 9.9%
viability, T/C [29]: 4.54%
viability, T/C [30]: 2.25%
viability, T/C (second compound 0.03 µM, first compound 3.16 µM): 0.96%
viability, T/C (second compound 0.03 µM, first compound 10 µM): 0.2%
viability, T/C [33]: 1.56%
viability, T/C [34]: 0.81%
viability, T/C [35]: 0.54%
viability, T/C [36]: 0.47%
viability, T/C (second compound 0.0949 µM, first compound 3.16 µM): 0.37%
viability, T/C (second compound 0.0949 µM, first compound 10 µM): 0.1%
viability, T/C [39]: 0.89%
viability, T/C [40]: 0.73%
viability, T/C [41]: 0.48%
viability, T/C [42]: 0.29%
viability, T/C (second compound 0.3 µM, first compound 3.16 µM): 0.33%
viability, T/C (second compound 0.3 µM, first compound 10 µM): 0.12%
